In ChEMBL document CHEMBL3272074, “A new class of diuretics with the 1,4-dioxino(2,3-g)quinolone structure” (J Med Chem, 1976):
Activity calls are given as the source filed them. No cut-off for these calls is given here.

Assays:
Rattus norvegicus [1] = test: Diuretic activity in po dosed albino Wistar-TNO rat assessed as 100% increase in urinary volume measured for 5 hrs; type: functional, Urine
Rattus norvegicus [2] = test: Diuretic activity in albino Wistar-TNO rat assessed as increase in urinary volume at 50 mg/kg, po measured for 5 hrs; type: functional, organism-based; parameters: dose 50 mg/kg; conditions: Urine
Rattus norvegicus [3] = test: Diuretic activity in po dosed albino Wistar-TNO rat assessed as increase in urinary volume measured for 5 hrs; type: functional, organism-based; conditions: Urine
Rattus norvegicus [4] = species: Rattus norvegicus; test: Ratio of furosemide ED200 to compound ED200 for diuretic activity in albino Wistar-TNO rat; type: functional, Urine
Rattus norvegicus [5] = test: Diuretic activity in po dosed albino Wistar-TNO rat assessed as rapid onset of action; type: functional, organism-based; conditions: Urine
Rattus norvegicus [6] = test: Diuretic activity in po dosed albino Wistar-TNO rat assessed as time duration of action; type: functional, Urine
Rattus norvegicus [7] = test: Natriuretic activity in po dosed albino Wistar-TNO rat assessed as Na/K ratio; type: functional, organism-based
Rattus norvegicus [8] = species: Rattus norvegicus; test: Diuretic activity in experimentally-induced alkalosis rat model; type: functional, organism-based; conditions: Urine
Rattus norvegicus [9] = species: Rattus norvegicus; test: Diuretic activity in experimentally-induced acidosis rat model; type: functional, organism-based; conditions: Urine
Rattus norvegicus [10] = test: Diuretic activity in experimentally-induced oedema rat model; type: functional, organism-based; conditions: Urine
Rattus norvegicus [11] = test: Diuretic activity in po dosed albino Wistar-TNO rat measured after chronic administration; type: functional, organism-based; conditions: Urine
Rattus norvegicus [12] = test: Toxicity in po dosed albino Wistar-TNO rat at 50 times effective dose for diuresis measured after chronic administration; type: organism-based; conditions: in vivo
Mus musculus = species: Mus musculus; test: Diuretic activity in mouse; type: functional, organism-based; conditions: Urine
Hamster = test: Diuretic activity in hamster; type: functional, organism-based; conditions: Cricetinae; Urine
Rhesus monkey = test: Diuretic activity in rhesus monkey; type: functional, organism-based; conditions: Macaca mulatta; Urine
Canis familiaris = species: Canis familiaris; test: Natriuretic activity in non-loaded Beagle dog; type: functional, organism-based; conditions: Canis lupus familiaris
Rattus norvegicus [13] = test: Toxicity in po dosed albino Wistar-TNO rat assessed as uric acid excretion; type: organism-based; conditions: in vivo

`CCOCC1COc2c(cc3[nH]cc(C(=O)OCC)c(=N)c3c2Cl)O1` (stereo not given) gave an ED200 (Rattus norvegicus [1]) of 2 mg/kg.

In the case of `CCOCC1COc2cc3c(=O)c(C(=O)OCC)c[nH]c3c(Cl)c2O1` (stereo not given), the Activity (Rattus norvegicus [2]) is reported as “inactive”.

`CCOCC1COc2c(cc3[nH]cc(C(=O)OCC)c(=O)c3c2Br)O1` (stereo not given) was tested, and the ED200 (Rattus norvegicus [1]) was 0.4 mg/kg.

`CCOCC1COc2c(cc3[nH]cc(C(=O)OCC)c(=O)c3c2[N+](=O)[O-])O1` (stereo not given) showed an ED200 (Rattus norvegicus [1]) of 3 mg/kg.

With `NS(=O)(=O)c1cc(C(=O)O)c(NCc2ccco2)cc1Cl` [FUROSEMIDE] the ED200 (Rattus norvegicus [1]) was 28 mg/kg and the Activity (Rattus norvegicus [3]) was “Dose-dependent effect”.

With `CCOCC1COc2c(c(Cl)c3[nH]cc(C(=O)OCC)c(=O)c3c2Cl)O1` (stereo not given) the Activity (Rattus norvegicus [2]) was “inactive”.

In the case of `CCOCC1COc2cc3[nH]cc(C(=O)OCC)c(=O)c3c(Cl)c2O1` (stereo not given), the ED200 (Rattus norvegicus [1]) is reported as 2.5 mg/kg.

Compound `CCOCC1COc2cc3c(=O)c(C(=O)OCC)c[nH]c3cc2O1` (stereo not given) has an ED200 (Rattus norvegicus [1]) of 3.8 mg/kg.

For `NS(=O)(=O)c1cc2c(cc1Cl)N=CNS2(=O)=O` [CHLOROTHIAZIDE], the ED200 (Rattus norvegicus [1]) was 30 mg/kg and the Activity (Rattus norvegicus [3]) was “Dose-dependent effect”.

`CCOCC1COc2c(cc3[nH]cc(C(=O)O)c(=O)c3c2Cl)O1` (stereo not given) was tested, and the ED200 (Rattus norvegicus [1]) was 0.14 mg/kg, the Ratio (Rattus norvegicus [4]) was 200 and the Activity (Rattus norvegicus [5]) was “Active”. For the same compound, the Time (Rattus norvegicus [6]) was 8 h, the Activity (Rattus norvegicus [7]) was “Active” and the Activity (Rattus norvegicus [8]) was “Active”. For the same compound, the Activity (Rattus norvegicus [9]) was “Active”, the Activity (Rattus norvegicus [10]) was “Active” and the Activity (Rattus norvegicus [11]) was “Active”. For the same compound, the Activity (Rattus norvegicus [12]) was “Non-toxic”, the Activity (Mus musculus) was “inactive” and the Activity (Hamster) was “inactive”. For the same compound, the Activity (Rhesus monkey) was “Active”, the Activity (Canis familiaris) was “Active” and the Activity (Rattus norvegicus [3]) was “Dose-dependent effect”. For the same compound, the Activity (Rattus norvegicus [13]) was “Toxic”.

Work on `CCOCC1COc2c(cc3[nH]cc(C(=O)OCC)c(=O)c3c2C(F)(F)F)O1` (stereo not given) yielded an ED200 (Rattus norvegicus [1]) of 0.5 mg/kg.

In the case of `CCOCC1COc2cc3c(=S)c(C(=O)OCC)c[nH]c3cc2O1` (stereo not given), the ED200 (Rattus norvegicus [1]) is reported as 13 mg/kg.

In the case of `CCOCC1COc2c(cc3[nH]cc(C(=O)OCC)c(=O)c3c2Cl)O1` (stereo not given) [QUINCARBATE], the ED200 (Rattus norvegicus [1]) is reported as 0.08 mg/kg, the Ratio (Rattus norvegicus [4]) is reported as 200 and the Activity (Rattus norvegicus [5]) is reported as “Active”. For the same compound, the Time (Rattus norvegicus [6]) was 8 h, the Activity (Rattus norvegicus [7]) was “Active” and the Activity (Rattus norvegicus [8]) was “Active”. The Activity (Rattus norvegicus [9]) was “Active”, the Activity (Rattus norvegicus [10]) was “Active” and the Activity (Rattus norvegicus [11]) was “Active”. For the same compound, the Activity (Rattus norvegicus [12]) was “Non-toxic”, the Activity (Mus musculus) was “inactive” and the Activity (Hamster) was “inactive”. For the same compound, the Activity (Rhesus monkey) was “Active”, the Activity (Canis familiaris) was “Active” and the Activity (Rattus norvegicus [3]) was “Dose-dependent effect”. The Activity (Rattus norvegicus [13]) was “Toxic”.
